Where a SMILES comes first, the peptide text is derived from it. Bridges are numbered along the chain shown (N, C = ends). [ ]: non-standard residue; d: D form. Orn = NCCC[C@H](N)C(=O)O; Mpa = O=C(O)CCS
How the values were obtained:
[1] = test system: newborn rats; experiment: Thermal tail-flick assay (tail immersion, 50° C. water); assay type: in vivo, rat; details: for change in tail withdrawal delay: P0 rats, atosibane 2 μg/kg or SSR126768A 1 μg/kg intraperitoneal; for change in tail-flick delays: P2 rats, oxytocin receptor blockers; for reversal of the effect of oxytocin receptor blockers on tail-flick: newborn rats
Description: Pregnant and maternal Wistar rats were housed with a 12-h light-dark-cycle, at 24°±1° C., and food and water ad libitum. The day of birth was considered 0 day old (P0). Experiments on P0 rats (male and female) were performed within two hours after birth.
The pup was held in a box with a hole allowing the tail to protrude from it. The inner surface of the box was covered with an aluminum sheet forming an electrical contact with the rat body. The electrical circuit via the sheet, body, tail and water bath was powered by a 1.5 V battery and its connection and disconnection could be easily detected upon the tail immersion and withdrawal from the water, respectively. Electrical signals were digitized at 1 kHz using a Digidata 1200 and recorded to a computer. The distal tip of the tail was lowered into the water bath (50° C.). Latency to withdrawal was recorded as the “pain” parameter, with a 15-second maximum allowable threshold. After three habituation tests, the latency to withdrawal was determined from the average of three consecutive measurements.
We first tested pain sensitivity in the newborn rats using a thermal tail-flick response. In this test, pain sensitivity is reciprocal to the delay in tail withdrawal from the hot water. […] We studied thermal tail-flick response in two age groups: (i) fresh newborn animals which were examined immediately, within an hour, after birth (P0) and (ii) two day-old rat pups (P2). […] We further studied whether endogenous oxytocin is involved in reduced pain in the newborn rats. To block the action of endogenous oxytocin circulating in the newborn pups we used selective blockers of oxytocin receptors atosibane (2 μg/kg, intraperiotoneal) and SSR126768A (1 μg/kg, intraperiotoneal).

[2] = test system: neonatal rats; experiment: Vocalization evoked by electrical stimulation of the whisker pad in decerebrated rat pups; assay type: in vivo
Description: Under isoflurane (1.5%) anaesthesia, rat pups were implanted with bipolar electrodes into the whisker pad and decerebrated at the upper pons level via a hole drilled 1 mm posterior to lambda using blunted 36 gouge needle, to avoid blood bleeding the hole was covered by cyanoacrylate after. After 10 min (P0) or one hour (P1-2 pups) of recovery period, the pups were wrapped by cotton and placed on the thermal blanket (38° C.). Whisker pad was stimulated by electrical train pulses (1 ms pulse duration, 5-25 V amplitude, 50 Hz, 1 minute inter-train interval). Vocalization response was recorded by microphone, digitized at 10 kHz using Digidata 1440 interface (Axon Instruments) and analyzed offline using Matlab (MathWorks, Natick, Mass.). To quantify the vocalization response, we calculated scalar integral (□) as following: (i) raw acustogram was converted to scalar acustogram by inverting all negative values to positive values; (ii) scalar acustogram was corrected for the baseline activity level by subtraction of the mean scalar acustogram value calculated during 1 minute before stimulation; (iii) scalar acustogram integral was calculated as cumulative, corrected for the baseline, scalar acustogram during 5 sec after stimulation.
In the experiments in vivo, Oxytocin (Sigma) 50 μM was injected at 0.1 ml/5 g (diluted in saline) IP, 30 min before testing. Bumetanide (Sigma) solution 25 μg/ml was injected IP at the dose of 5 μmol/kg, 30 min before testing. Atosiban (Sigma) (diluted in saline) was injected at 2 μg/kg, IP, 30 min before testing. SSR126768A (gift from Sanofi-Synthelabo) diluted in saline injected at 1 mg/kg IP, 30 min before testing. Sham injections in the control group were performed with equal volumes of saline.
In the second experiment, we studied oxytocin-modulation of the pain responses by measuring vocalization evoked by electrical stimulation of the whisker pad. Animals were decerebrated at caudal midbrain levels to cut the descending oxytocin projections from the VPN to spinal cord and to prevent noxious input to the brain. Electrical stimulation of the whisker pad evoked vocalization in the neonatal rats despite of decerebration. Vocalizing response was composed of several bursts with a dominant frequency in the range from 2.7 to 5 kHz (mean frequency 3.9±0.1 kHz n=24, rat P0-2). To quantify vocalization response, we calculated scalar acusticogram integral. In agreement with the results of the thermal tail-flick assay, oxytocin receptor blocker atosiban (2 μg/kg) increased vocalization response in the fresh newborn P0 rats (to 155±28%, n=8, p=0.0003;). […]

[3] = test system: isolated spinal cord preparations; experiment: Primary afferents depolarization (DR-DRPs) in isolated spinal cord; design: species or system rat
Description: Experiments were performed on lumbar (L) spinal cord preparations isolated from neonatal Wistar rats (P0-P1). All efforts were made to reduce the number of animals used and to minimize animal suffering. The experimental setup was the same as described previously (Taccola and Nistri, 2004). The spinal cord was superfused (5 ml min-1) with Krebs solution of the following composition (in mM): NaCl, 113; KCl, 4.5; MgCl2×7H2O, 1; CaCl2, 2; NaH2PO4, 1; NaHCO3, 25; glucose, 11; gassed with 95% O2-5% CO2; pH 7.4 at room temperature. All agents were bath-applied via the superfusing solution at the concentrations mentioned in the text. Recordings were obtained with glass suction electrodes (containing an Ag—AgCl pellet) filled with Krebs solution. Miniature bipolar suction electrodes were used in order to deliver single or repetitive electrical stimuli to DRs to evoke DR-DR potentials (DR-DRPs) (Kerkut and Bagust, 1995). Stimulus intensity was calculated in terms of threshold (Th), defined as the minimum intensity to elicit a detectable response in the homolateral VR.
Depolarizing action of GABA on the axons of primary afferents underlies primary afferents depolarization (PAD), that is a depolarizing response evoked by dorsal root stimulation in the neighboring dorsal root (Willis, 2006; Rudomin and Schmidt, 1999). Therefore, in the next experiments we have studied the effect of oxytocin on PAD in the in vitro isolated spinal cord preparations obtained from newborn rats.

[4] = test system: trigeminal sensory neurons; experiment: Calcium imaging of GABA-evoked intracellular calcium increases; assay type: cell-based, rat; details: oxytocin 1 μM; for GABA-evoked intracellular calcium increases: trigeminal neurons from newborn rats, five hours in vitro
Description: Trigeminal sensory neurons were obtained from P0 rats. Animals were anesthetized by CO2 and decapitated. Trigeminal ganglia were excised and enzymatically dissociated in F12 medium containing 0.25 mg/ml trypsin, 1 mg/ml collagenase and 0.2 mg/ml DNAse (Sigma) at 37° C. Cells were plated on poly-1-lysine-coated Petri dishes in F12 medium with 10% fetal calf serum and examined 5 hours after plating. For Ca2+ imaging experiments cells were incubated for 40 min at 20-22° C. in physiological solution containing Fluo3 (AM ester cell-permeable compound; 1 μM; Molecular Probes), followed by a 30 min washout period. Fluorescence emission was detected with a Cell-R imaging system (Olympus, Hamburg, Germany). Images were acquired with 200 ms exposure time and single cell responses were analyzed with the Cell-R software. All drugs were applied via fast perfusion system (RDS-200, BioLogic Science Instruments Grenoble, France). Only cells with two stable control GABA transients were taken into analysis. Intracellular Ca2+ transients were expressed as percent amplitude increase (ΔF/F0, where F0 is the baseline fluorescence level and ΔF is the increment over baseline). Ca2+ transient intensity data was exported and then analyzed off-line using Excel and Origin (version 8.0) software. Significance was analyzed by non-parametric Mann-Witney test.
Because analgesic action of oxytocin in adult rats involves modulation of GABAergic control of the primary nociceptive afferents (Condes-Lara et al., 2009), we studied the effect of oxytocin on GABA responses in sensory trigeminal neurons, which detect noxious stimuli and conduct them to the spinal cord. Experiments were performed in primary cultures of trigeminal neurons dissociated from newborn rats and kept for five hours in vitro. In keeping with previous observations (Wang et al., 1994; Reichling et al., 1994), activation of GABA receptors induced robust transient increases of intracellular calcium in trigeminal neurons indicating depolarizing action of GABA and calcium entry into the cells via voltage-gated calcium channels. […]

[5] = molecular target: T1, TRPV1 receptors (Rattus norvegicus, UniProt O35433); experiment: Calcium imaging of capsaicin-evoked responses in DRG neurons; assay type: cell-based
T1 construct: endogenous in cells; host or cells: acutely dissociated primary sensory neurons (trigeminal ganglia per methods; called DRG neurons in results) from P0 rats

[6] = molecular target: T2, P2X3 receptor (Rattus norvegicus, UniProt P49654); experiment: Calcium imaging of α-β-meATP-evoked responses in DRG neurons; assay type: cell-based
T2 construct: endogenous in cells; host or cells: acutely dissociated primary sensory neurons (trigeminal ganglia per methods; called DRG neurons in results) from P0 rats
T2 sequence (P49654 1-397): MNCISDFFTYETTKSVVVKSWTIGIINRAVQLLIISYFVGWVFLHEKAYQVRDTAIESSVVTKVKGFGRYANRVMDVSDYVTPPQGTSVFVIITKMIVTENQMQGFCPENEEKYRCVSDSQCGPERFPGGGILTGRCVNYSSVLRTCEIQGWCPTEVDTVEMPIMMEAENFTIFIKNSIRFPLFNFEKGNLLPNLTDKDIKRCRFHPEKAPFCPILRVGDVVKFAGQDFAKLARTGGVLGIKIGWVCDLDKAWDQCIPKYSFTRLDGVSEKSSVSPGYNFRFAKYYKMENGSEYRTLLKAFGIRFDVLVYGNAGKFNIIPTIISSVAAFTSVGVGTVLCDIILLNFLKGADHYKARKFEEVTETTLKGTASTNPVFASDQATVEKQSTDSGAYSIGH

[7] = test system: GABA(A) channels; experiment: Cell-attached single GABA(A) channel recordings (GABA driving force); assay type: cell-based, rat; details: immature trigeminal neurons; oxytocin 1 μM (control 38.7±2.4 mV)
Description: Single GABA channel recordings were performed from the trigeminal sensory neurons prepared as described above. Cell attached patch-clamp recordings were performed using Axopatch 200A (Axon Instruments, Union City, Calif.) and EPC-9 (HEKA Elektronik Dr. Schulze GmbH, Lambrecht/Pfalz, Germany) amplifiers. Patch electrodes were made from borosilicate glass capillaries (GC150F-15, Clark Electromedical Instruments). For recordings of single GABA(A) channels, patch pipette solution contained (in mM): NaCl 120, TEA-Cl 20, KCl 5, 4-aminopyridine 5, CaCl2 0.1, MgCl2 10, glucose 10, Hepes-NaOH 10 buffered to pH 7.2-7.3 and GABA (1-5 μM) was added at the day of experiment from 1 mM frozen stock solution. Driving force for GABA(A) receptor mediated currents was determined from the current-voltage relationships of the currents through single GABA(A) channels single as described earlier (Tyzio et al., 2006) and corrected for an error of 2 mV (Tyzio et al., 2008).
DFGABA was deduced from reversal potential of the currents via GABA(A) channels (Serafini et al., 1995; Tyzio et al., 2006; Tyzio et al., 2008). In control conditions, GABA exerted strongly depolarizing action on the immature trigeminal neurons with DFGABA of 38.7±2.4 mV (n=6). In the presence of oxytocin (1 μM), DFGABA reduced to 17.7±6.7 mV (n=5; P<0.05).

[8] = newborn rats, drug alone (oxytocin 1 μM; atosiban 10 μM)
[9] = recordings between 12 and 24 hours after birth, atosiban 10 μM, oxytocin

T1 sequence (O35433 whole entry): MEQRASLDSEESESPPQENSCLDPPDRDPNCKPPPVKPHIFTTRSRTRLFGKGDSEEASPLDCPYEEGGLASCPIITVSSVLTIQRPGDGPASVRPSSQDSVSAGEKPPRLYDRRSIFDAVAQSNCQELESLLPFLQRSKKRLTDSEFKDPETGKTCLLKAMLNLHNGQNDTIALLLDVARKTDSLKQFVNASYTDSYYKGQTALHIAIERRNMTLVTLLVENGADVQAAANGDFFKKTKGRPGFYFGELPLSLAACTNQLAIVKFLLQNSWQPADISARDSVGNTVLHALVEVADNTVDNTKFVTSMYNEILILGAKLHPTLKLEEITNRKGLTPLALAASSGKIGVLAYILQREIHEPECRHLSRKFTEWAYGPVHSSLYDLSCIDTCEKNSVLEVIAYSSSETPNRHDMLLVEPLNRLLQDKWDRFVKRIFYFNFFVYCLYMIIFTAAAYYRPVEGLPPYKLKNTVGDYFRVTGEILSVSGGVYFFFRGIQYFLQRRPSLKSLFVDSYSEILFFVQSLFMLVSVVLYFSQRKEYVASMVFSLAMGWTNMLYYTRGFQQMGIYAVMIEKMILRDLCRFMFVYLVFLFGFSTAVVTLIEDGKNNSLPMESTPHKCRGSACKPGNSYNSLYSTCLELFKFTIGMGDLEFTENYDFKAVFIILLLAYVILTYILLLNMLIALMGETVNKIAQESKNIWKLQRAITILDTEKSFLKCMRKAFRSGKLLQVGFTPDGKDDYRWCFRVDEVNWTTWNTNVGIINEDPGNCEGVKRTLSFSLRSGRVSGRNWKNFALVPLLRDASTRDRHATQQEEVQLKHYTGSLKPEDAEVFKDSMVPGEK

Row | Structure (SMILES) | change in tail withdrawal delay [1] | change in tail-flick delays [1] | peak of DR-DRPs, % of control [3, 8] | peak of DR-DRPs, % of control [3, 9] | reversal of the effect of oxytocin receptor blockers on tail-flick [1] | vocalization response (scalar acusticogram integral) ([2]; P1-2 rats, drug alone) | GABA-evoked intracellular calcium increases [4] | further results
1 | CCN(Cc1cccnc1)C(=O)c1ccc(Cl)c([C@]2(C)C(=O)N(Cc3ccc(OC)cc3OC)c3ccc(Cl)cc32)c1 [SSR126768A] | nearly three-fold acceleration in the tail withdrawal | did not significantly modify the tail-flick delays | – | – | – | – | – | –
2 | CCOc1ccc(C[C@H]2NC(=O)CCSSC[C@@H](C(=O)N3CCC[C@H]3C(=O)N[C@@H](CCCN)C(=O)NCC(N)=O)NC(=O)[C@H](CC(N)=O)NC(=O)[C@H]([C@@H](C)O)NC(=O)[C@H]([C@@H](C)CC)NC2=O)cc1 [atosiban] ([Mpa][dY](Et)ITNCP[Orn]G-NH2; disulfide 1-6) | nearly three-fold acceleration in the tail withdrawal | did not significantly modify the tail-flick delays | 112.7±9.1% | 90.0±9.8% | – | – | – | vocalization response (scalar acusticogram integral) ([2]; P0 rats, atosiban 2 μg/kg): 155±28%; vocalization response, from control level ([2]; P1-2 rats, atosiban on top of exogenous oxytocin): 84±38%; peak of DR-DRPs, % of control ([3]; atosiban 10 μM added to oxytocin 1 μM): 106.0±20.8%
3 | CCCCNc1cc(C(=O)O)cc(S(N)(=O)=O)c1Oc1ccccc1 [bumetanide] | – | – | – | – | reversed the effect of oxytocin receptor blockers | 72±16% | suppressed the GABA receptor mediated increases in intracellular calcium | tail-flick responses ([1]; bumetanide 10 μM/kg, both age groups (P0 and P2)): strongly delayed the tail-flick responses; peak of DR-DRPs, % with respect to control values ([3]; bumetamide 20 μM added to atosiban 10 μM): 66.6±13.8%
4 | COc1cc(CNC(=O)CCCC/C=C/C(C)C)ccc1O [capsaicin] | – | – | – | – | – | – | – | Ca2+ response evoked by agonist ([5]; 200 nM, 2 s pulses at 10 min intervals): evoked transient, and quite stable Ca2+ increases
5 | CC[C@H](C)[C@@H]1NC(=O)[C@H](Cc2ccc(O)cc2)NC(=O)[C@@H](N)CSSC[C@@H](C(=O)N2CCC[C@H]2C(=O)N[C@@H](CC(C)C)C(=O)NCC(N)=O)NC(=O)[C@H](CC(N)=O)NC(=O)[C@H](CCC(N)=O)NC1=O [oxytocin] | – | – | 93.6±5.6% | 77.8±21.6% | partially reverse the effects of the competitive oxytocin receptor blockers | 41±12% | significantly reduced GABA-evoked calcium increases | analgesic effect in tail-flick test ([1]; exogenous oxytocin 1 μg/kg systemic, newborn and P2 rats): dramatic analgesic effect; duration of slow transient responses induced by the drug ([4]; not shown): 60 to 80 s; amplitude of α-β-meATP (10 μM) evoked Ca2+ responses ([6]; 1 μM-OT for 20-30 min): did not significantly change the amplitude; amplitude of capsaicin (200 nM) evoked Ca2+ responses ([5]; 1 μM-OT for 20-30 min): did not significantly change the amplitude; GABA driving force (DFGABA) [7]: 17.7±6.7 mV
6 | Nc1ncnc2c1ncn2[C@@H]1O[C@H](COP(=O)(O)CP(=O)(O)OP(=O)(O)O)[C@@H](O)[C@H]1O [α-β-methylenATP] | – | – | – | – | – | – | – | Ca2+ response evoked by agonist ([6]; 10 μM, 2 s pulses at 10 min intervals): evoked transient, and quite stable Ca2+ increases

Reference: patent US20120252894A1, “COMPOUNDS FOR ALLEVIATING PAIN AND STRESS IN FETUS AND NEWBORN” (priority 2011, published 2012)
